Test results published in ChEMBL document CHEMBL5620433, “Design and synthesis of new 1,2,3-triazoles derived from eugenol and analogues with in vitro and in vivo activity against Trypanosoma cruzi” (Eur J Med Chem, 2023).
Active and inactive are the calls of the source. The calls are words filed in the database; no cut-off is given here.

Columns and labels:
Trypanosoma cruzi [1] = experiment: Antitrypanosomal activity against epimastigote form of Trypanosoma cruzi Y assessed as inhibition of parasite proliferation incubated for 72 hrs by resazurin dye based analysis; format: functional, organism-based
[2] = target: Cruzipain (Trypanosoma cruzi) (UniProt P25779); experiment: Inhibition of recombinant Trypanosoma cruzi Cruzain using Z-FR-AMC as substrate at 100 uM preincubated with enzyme for 10 mins and measured for 5 mins by fluorescence based analysis; conditions: time 15.0 min
Chain of Cruzipain (Trypanosoma cruzi) (P25779 123-467 limits assumed): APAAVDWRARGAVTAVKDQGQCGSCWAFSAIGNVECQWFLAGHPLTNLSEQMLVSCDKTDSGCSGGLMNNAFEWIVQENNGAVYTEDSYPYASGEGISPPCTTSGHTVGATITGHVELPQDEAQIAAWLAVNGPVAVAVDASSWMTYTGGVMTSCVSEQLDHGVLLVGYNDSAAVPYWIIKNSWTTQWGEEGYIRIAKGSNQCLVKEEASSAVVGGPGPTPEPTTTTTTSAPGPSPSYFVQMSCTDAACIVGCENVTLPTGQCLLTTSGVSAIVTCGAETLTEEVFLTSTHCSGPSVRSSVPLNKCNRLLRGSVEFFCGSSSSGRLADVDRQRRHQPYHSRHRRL

H9c2 = experiment: (§1) Cytotoxicity against rat H9c2 cells assessed as reduction in cell viability measured after 72 hrs by resazurin due based analysis; format: toxicity; conditions: h9c2
[3] = target: Cruzipain (Trypanosoma cruzi) (UniProt P25779); experiment: Inhibition of recombinant Trypanosoma cruzi Cruzain using Z-FR-AMC as substrate at 100 uM measured for 5 mins by fluorescence based analysis
[4] = Selectivity index, ratio of CC50 for cytotoxicity against rat H9c2 cells to IC50 for antitrypanosomal activity against epimastigote form of Trypanosoma cruzi Y; format: toxicity, cell-based; conditions: read-out: Ratio IC50
[5] = as §1; format: toxicity; conditions: rat, H9c2 cells
[6] = Toxicity in po dosed Swiss mouse infected with trypomastigote form of Trypanosoma cruzi Y assessed as mortality administered via gavage for 7 days from day 5 post-infection and measured on day 13 post-infection; format: organism-based; conditions: in vivo, 192 h, time 8 day
[7] = Toxicity in Swiss mouse infected with trypomastigote form of Trypanosoma cruzi Y assessed as increase in weight gain at 10 to 100 mg/kg, po administered via gavage for 7 days from day 5 post-infection; format: organism-based; conditions: in vivo, 168 h, dose 10-100 mg/kg, time 7 day
Trypanosoma cruzi [8] = experiment: Anti-trypanosomal activity against trypomastigote form of Trypanosoma cruzi Y infected in Swiss mouse assessed as reduction in parasitemia at 10 to 100 mg/kg, po administered via gavage for 7 days from day 5 post-infection; format: functional, organism-based; conditions: dose 10-100 mg/kg, time 7.0 day
Trypanosoma cruzi [9] = experiment: Antitrypanosomal activity against trypomastigote form of Trypanosoma cruzi Y assessed as inhibition of parasite viability incubated for 24 hrs by light microscopy; format: functional, organism-based
[10] = Toxicity in po dosed Swiss mouse infected with trypomastigote form of Trypanosoma cruzi Y assessed as diarrhea administered via gavage for 7 days from day 5 post-infection and measured on day 13 post-infection; format: organism-based; conditions: in vivo, 192 h, time 8 day
[11] = Toxicity in po dosed Swiss mouse infected with trypomastigote form of Trypanosoma cruzi Y assessed as apathy administered via gavage for 7 days from day 5 post-infection and measured on day 13 post-infection; format: organism-based; conditions: in vivo, 192 h, time 8 day
[12] = Hepatotoxicity in Swiss mouse infected with trypomastigote form of Trypanosoma cruzi Y assessed as plasma alanine aminotransferase level at 50 to 100 mg/kg, po administered via gavage for 7 days from day 5 post-infection by spectrophotometry; format: toxicity, organism-based; conditions: in vivo, 168 h, dose 50-100 mg/kg, time 7 day
[13] = Toxicity in po dosed Swiss mouse infected with trypomastigote form of Trypanosoma cruzi Y assessed as bristly fur administered via gavage for 7 days from day 5 post-infection and measured on day 13 post-infection; format: organism-based; conditions: in vivo, 192 h, time 8 day
[14] = Hepatotoxicity in Swiss mouse infected with trypomastigote form of Trypanosoma cruzi Y assessed as plasma aspartate aminotransferase level at 50 to 100 mg/kg, po administered via gavage for 7 days from day 5 post-infection by spectrophotometry; format: toxicity, organism-based; conditions: in vivo, 168 h, dose 50-100 mg/kg, time 7 day
Trypanosoma cruzi [15] = experiment: Anti-trypanosomal activity against epimastigote form of Trypanosoma cruzi by resazurin microtiter assay; format: functional, organism-based
Trypanosoma cruzi [16] = experiment: Anti-trypanosomal activity against trypomastigote form of Trypanosoma cruzi Y infected in mouse assessed as reduction in parasitemia at 100 mg/kg, po for 7 days; format: functional; conditions: 168 h, time 7 day

CCCc1ccc(OCC(=O)Cn2cc(-c3ccccc3)nn2)c(OC)c1
IC50 (Trypanosoma cruzi [1]): 558 µM
inhibition [2]: 7.2%
IC50 (H9c2): 1070 µM
inhibition [3]: 7.2%
selectivity ratio [4]: 1.9

C=CCc1ccc(OCC(O)Cn2cc(COc3ccc(C(C)C)cc3)nn2)c(OC)c1 (racemic)
IC50 (Trypanosoma cruzi [1]): 826 µM
inhibition [2]: 7.2%
IC50 at 72 h [5]: 480 µM
inhibition [3]: 7.2%
selectivity ratio [4]: 0.5

CCCc1ccc(OCC(O)Cn2cc(COc3ccc(OC)cc3)nn2)c(OC)c1 (racemic)
IC50 (Trypanosoma cruzi [1]): 34.4 µM
inhibition [2]: 7.2%
IC50 at 72 h [5]: 315 µM
inhibition [3]: 7.2%
selectivity ratio [4]: 9.1

COc1ccccc1OCC(O)Cn1cc(COc2ccc(C(C)C)cc2)nn1 (racemic)
IC50 (Trypanosoma cruzi [1]): 64.3 µM
inhibition [2]: 7.2%
inhibition [3]: 7.2%

CCCc1ccc(OCC(O)Cn2cc(COc3ccc(C(C)C)cc3)nn2)c(OC)c1 (racemic)
IC50 (Trypanosoma cruzi [1]): 41.1 µM
inhibition [2]: 7.2%
IC50 at 72 h [5]: 302 µM
inhibition [3]: 7.2%
selectivity ratio [4]: 7.3

CCCc1ccc(OCC(O)Cn2cc(COc3ccc(Cl)cc3)nn2)c(OC)c1 (racemic)
IC50 (Trypanosoma cruzi [1]): 19.7 µM
Activity [6]: Non-Toxic
Activity [7]: Non-Toxic
Activity (Trypanosoma cruzi [8]): inactive
IC50 (Trypanosoma cruzi [9]): 20.7 µM
Activity [10]: Non-Toxic
inhibition [2]: 29.3%
Activity [11]: Non-Toxic
Activity [12]: Non-Toxic
IC50 at 72 h [5]: 132 µM
Activity [13]: Toxic
inhibition [3]: 29.3%
selectivity ratio [4]: 6.6
Activity [14]: Non-Toxic

COc1ccccc1OCC(O)Cn1cc(COc2ccc(Cl)cc2)nn1 (racemic)
IC50 (Trypanosoma cruzi [1]): 121 µM
inhibition [2]: 7.2%
IC50 at 72 h [5]: 380 µM
inhibition [3]: 7.2%
selectivity ratio [4]: 3.1

CCCc1ccc(OCC(Cn2cc(-c3ccccc3)nn2)OC)c(OC)c1 (racemic)
IC50 (Trypanosoma cruzi [1]): 198 µM
inhibition [2]: 7.2%
IC50 at 72 h [5]: 555 µM
inhibition [3]: 7.2%
selectivity ratio [4]: 2.8

C=CCc1ccc(OCC(O)Cn2cc(COc3ccccc3)nn2)c(OC)c1 (racemic)
IC50 (Trypanosoma cruzi [1]): 256 µM
inhibition [2]: 7.2%
IC50 at 72 h [5]: 410 µM
inhibition [3]: 7.2%
selectivity ratio [4]: 1.6

COc1ccccc1OCC(O)Cn1cc(-c2ccccc2)nn1 (racemic)
IC50 (Trypanosoma cruzi [1]): 126 µM
inhibition [2]: 7.2%
IC50 at 72 h [5]: 422 µM
inhibition [3]: 7.2%
selectivity ratio [4]: 3.3

CCCc1ccc(OCC(O)Cn2cc(-c3ccccc3)nn2)c(OC)c1 (racemic)
IC50 (Trypanosoma cruzi [15]): 42.8 µM
IC50 (Trypanosoma cruzi [1]): 53.7 µM
inhibition in vivo at 100 mg/kg (Trypanosoma cruzi [16]): 50%
inhibition [2]: 17%
IC50 at 72 h [5]: 16.8 µM
inhibition [3]: 17%
selectivity ratio [4]: 0.3
